Source: patent US6616925B1, “Combined preparation for the treatment of neoplasic diseases or of infectious diseases” (I.D.M. Immuno-Designed Molecules, priority 1998, dated 2003)

How the values were obtained:
[1] = system: human carcinoma solid tumors; experiment: nude mice inoculated with human carcinoma solid tumors, subcutaneous tumor size; assay type: in vivo; conditions: after macrophage treatment; drugs used alone or in combination
Description: 2) Nude mice inoculated with human carcinoma solid tumors are, initially treated with cytotoxic drugs (Adriamycin, Etretinate, Taxotere), used alone or in combination.

solid carcinoma = experiment: C57B16 mice bearing solid carcinoma, apoptosis-inducing drug then monocyte derived cells; assay type: in vivo; conditions: drug intraperitonealy, after 24 h 0.1 million monocyte derived cells in tumor periphery; observed only after combined treatment
Description: 7) C57B16 mice bearing solid carcinoma are injected intraperitonealy with a drug inducing apoptosis (1 mg mitomycin C or 0.1 mg sodium butyrate). After 24 h, mice are injected with 0.1 million monocyte derived cells in tumor periphery. […] In another protocol, carcinoma cells are treated in vitro with 0.01 mM sodium butyrate, and then submitted to phagocytosis by murine monocyte derived cells.

CCOC(=O)/C=C(C)/C=C/C=C(C)/C=C/c1c(C)cc(OC)c(C)c1C [Etretinate]
antitumoral effect of second treatment with the same cytotoxic drugs (subcutaneous tumor size) [1]: further antitumoral effect

CCCC(=O)[O-].[Na+] [sodium butyrate]
tumor outcome after combined treatment (solid carcinoma): Tumor regression and protection against further tumor challenge

CO[C@@]12[C@H](COC(N)=O)C3=C(C(=O)C(C)=C(N)C3=O)N1C[C@@H]1N[C@@H]12 [mitomycin C]
tumor outcome after combined treatment (solid carcinoma): Tumor regression and protection against further tumor challenge

COc1cccc2c1C(=O)c1c(O)c3c(c(O)c1C2=O)C[C@@](O)(C(=O)CO)C[C@@H]3O[C@H]1C[C@H](N)[C@H](O)[C@H](C)O1 [Adriamycin]
antitumoral effect of second treatment with the same cytotoxic drugs (subcutaneous tumor size) [1]: further antitumoral effect

CC(=O)O[C@@]12CO[C@@H]1C[C@H](O)[C@@]1(C)C(=O)[C@H](O)C3=C(C)[C@@H](OC(=O)[C@H](O)[C@@H](NC(=O)OC(C)(C)C)c4ccccc4)C[C@@](O)([C@@H](OC(=O)c4ccccc4)[C@H]21)C3(C)C [Taxotere]
antitumoral effect of second treatment with the same cytotoxic drugs (subcutaneous tumor size) [1]: further antitumoral effect
